Measurements as given in EP1181934A1, “INHIBITORS FOR OPTIC HYPOFUNCTION CAUSED BY OPTIC NERVE CELL INJURY INDUCED BY FACTORS OTHER THAN OPTIC CIRCULATORY DISORDER” (Senju Pharmaceutical Co., Ltd., priority 1999, dated 2000).

Columns and labels:
[1] = test system: retinal ganglion cells; test: central retinal artery and vein ligation model (ischemia/re-perfusion), retinal ganglion cell count; type: in vivo; settings: male SD rats; hemostasis 55 minutes; 10 µg/kg via the tail vein twice (15 min before hemostasis and immediately after declamping); day 7 from release from ischemia; vs ischemic re-perfusion group, P<0.027 (Fig. 1, n=6)
Procedure: Effect of the inventive compound on an ophthalmic nerve cell disorder in rats was tested using a central retinal artery and vein ligation model, which is a model for examining increase in a calcium amount in an optic nerve cell.
Male SD rats (body weight 150 g) were grouped into a normal group, ischemic re-perfusion group and inventive compound administration group. The ischemic re-perfusion group and the inventive compound administration group were anesthetized with pentobarbital 50 mg/kg, and the central retinal artery and vein were ligated with an arterial aneurysm clip for hemostasis for 55 minutes. At 7 days from declamping, eyeballs were removed and fixed with 4% formaldehyde to prepare a tissue sample. After embedding in paraffin according to a conventional method, a thin slice (2 µm thick) was prepared by horizontal section vertical to a surface of the retina including the optic disc, and stained with hematoxylin-eosin. The number of retinal ganglion cells per a 0.25 mm retina vertical section at a certain distance (1-2 mm) from the optic disc was counted under an optical microscope. As regards the normal group, the number of retinal ganglion cells was counted in the same manner only with exposure of the central retinal artery and vein and without hemostasis. […]
Significance was detected by the Student's t-Test.

[2] = test system: retinal ganglion cells; test: cell death induction by increased intracellular calcium amount (kainic acid) in isolated retinal ganglion cells, MTT; type: cell-based; settings: retinal ganglion cells of 8-day-old rats, 5 mM calcium chloride, pH 6.0, 1 h pre-incubation with compound, then 200 µM kainic acid, vs cell death induction group, P<0.01 (Fig. 2)
Procedure: The retina was obtained from ten 8-day-old rats and treated with papain to give a cell suspension. Using a non-coat dish (TERUMO) and a dish (CORNING) coated with Thy-1.1 antibody (American Type Culture Collection, […]), retinal ganglion cells alone were isolated from the whole cells of the retina. The retinal ganglion cells on the dish were trypsinized and recovered. Then the recovered retinal ganglion cells were plated on a 96 well plate coated with poly-D-lysine and laminin at a concentration of 5000 cells/well/100 μl. The isolated retinal ganglion cells were divided for the normal group, cell death induction group and inventive compound administration group. As the cultures of the cell death induction group and inventive compound administration group, calcium chloride was added to Neurobasal medium (GIBCO) at a final concentration of 5 mM to adjust its pH to 6.0 and used. As the additives to the culture, 40 ng/ml BDNF (Pepro Tech), 40 ng/ml CNTF (Sigma), 5 μM Forskolin (Sigma), 1 mM glutamine (Wako), 50x B27 supplement (GIBCO) and Pen-strep (GIBCO) were added. For the inventive compound administration group, the inventive compound was added simultaneously with the plating of the cells and pre-incubated at 37°C for 1 h. After 1 h, kainic acid having a final concentration of 200 μM was added and the mixture was incubated at 37°C to induce cell death. […]

[3] = test system: ischemic retinal neurocyte disorder; settings: calcium antagonists; experiment models such as high ocular pressure rat models and central retinal artery and vein ligation models; cited from earlier work

Structure (SMILES)	number of residual retinal ganglion cells in 0.25 mm of vertical retinal cross section [1]	viability (%) relative to that of a normal group (retinal ganglion cell count) [2]	inhibition of ischemic retinal neurocyte disorder [3]
C=CCN1CCN(CC(C)(C)COC(=O)C2=C(C)NC(C)=C(C(=O)OC)C2c2cccc([N+](=O)[O-])c2)CC1.Cl.Cl (stereo not drawn) [inventive compound, 3-(4-allyl-1-piperazinyl)-2,2-dimethylpropyl methyl 2,6-dimethyl-4-(m-nitrophenyl)-1,4-dihydropyridine-3,5-dicarboxylate dihydrochloride]	significantly inhibited decrease in the retinal ganglion cell count	significantly inhibited decrease in the retinal ganglion cell count	
Fc1ccc(C(c2ccc(F)cc2)N2CCN(C/C=C/c3ccccc3)CC2)cc1 [flunarizine]			inhibited ischemic retinal neurocyte disorder
